This is an account of results in US20060240494A1, “Biocidal molecules, macromolecular targets and methods of production and use” (priority 2000, published 2006).

Test [1] concerns Ras. In words: Fluorescence polarization binding of fluorescein-labeled peptides to Ras (negative control protein). Particulars: Ras at both concentrations (4 μM and 2 μM); peptide 1 nM; blank about 62. The source says:
(§1) All solid-phase assays that separate the bound form of the ligand from the free form are suspect. Therefore, in the next step, the binding of labeled peptides to the heat shock/chaperone proteins and to LPS was observed by fluorescence polarization.
(§2) In one example, three fluorescein-labeled peptides were synthesized with the fluorescein label attached at the N-terminus of the peptide: fluorescein-K-pyrrhocoricin (N-F-pyrrhocoricin), fluorescein-K-drosocin (unglycosylated; N-F-drosocin), and fluorescein-K-apidaecin (N-F-apidaecin). A C-terminally labeled peptide was also made, i.e., pyrrhocoricin-K-fluorescein (C-F-pyrrhocoricin). The C-terminally labeled pyrrhocoricin peptide (C-F-pyrrhocoricin) was made to investigate the possibility of spatial separation of the active sites. From earlier experiments, it was clear that pyrrhocoricin and drosocin bind to the receptor(s) with their two terminal domains [Hoffmann, R. et al, (1999) Biochim. Biophys. Acta, 1426: 459-467; McManus, A. et al, (1999) Biochemistry, 38: 705-714].
(§3) During fluorescence polarization, positive signals are detected only when the free rotation of the fluorescein attached to one of the interacting partners is slowed down due to binding to the other partner when this label is not exceedingly far from the site of interaction. […]

Test [2] deals with T1, GroES (Escherichia coli, UniProt P0A6F9).
T1 construct: purchased; host or cells: E. coli
T1 sequence (P0A6F9 whole entry): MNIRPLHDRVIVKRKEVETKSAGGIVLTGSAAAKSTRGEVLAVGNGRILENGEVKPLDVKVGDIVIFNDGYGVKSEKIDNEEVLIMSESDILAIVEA
The test is described as follows: Fluorescence polarization binding of fluorescein-labeled peptides to GroES. Particulars: GroES at both concentrations (4 μM and 2 μM); peptide 1 nM; blank about 62.
Description: as §1, §2, §3
A general note: Fluorescence polarisation rises when a labelled molecule tumbles more slowly, as on binding a larger partner.

The target in test [3] is T2, GrpE (Escherichia coli, UniProt P09372).
T2 construct: purchased; host or cells: E. coli
T2 sequence (P09372 whole entry): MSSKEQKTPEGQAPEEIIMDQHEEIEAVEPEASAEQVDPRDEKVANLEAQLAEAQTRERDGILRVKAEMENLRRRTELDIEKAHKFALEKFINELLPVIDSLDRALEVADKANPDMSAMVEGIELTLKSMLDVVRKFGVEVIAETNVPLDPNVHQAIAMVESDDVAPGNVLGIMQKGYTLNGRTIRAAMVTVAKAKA
The test is described as follows: Fluorescence polarization binding of fluorescein-labeled peptides to GrpE. Conditions: GrpE at both concentrations (4 μM and 2 μM); peptide 1 nM; blank about 62.
Description: as §1, §2, §3

The target in test [4] is T3, Hsp60 (Homo sapiens, UniProt P10809).
T3 construct: purchased; host or cells: E. coli
T3 sequence (P10809 27-573): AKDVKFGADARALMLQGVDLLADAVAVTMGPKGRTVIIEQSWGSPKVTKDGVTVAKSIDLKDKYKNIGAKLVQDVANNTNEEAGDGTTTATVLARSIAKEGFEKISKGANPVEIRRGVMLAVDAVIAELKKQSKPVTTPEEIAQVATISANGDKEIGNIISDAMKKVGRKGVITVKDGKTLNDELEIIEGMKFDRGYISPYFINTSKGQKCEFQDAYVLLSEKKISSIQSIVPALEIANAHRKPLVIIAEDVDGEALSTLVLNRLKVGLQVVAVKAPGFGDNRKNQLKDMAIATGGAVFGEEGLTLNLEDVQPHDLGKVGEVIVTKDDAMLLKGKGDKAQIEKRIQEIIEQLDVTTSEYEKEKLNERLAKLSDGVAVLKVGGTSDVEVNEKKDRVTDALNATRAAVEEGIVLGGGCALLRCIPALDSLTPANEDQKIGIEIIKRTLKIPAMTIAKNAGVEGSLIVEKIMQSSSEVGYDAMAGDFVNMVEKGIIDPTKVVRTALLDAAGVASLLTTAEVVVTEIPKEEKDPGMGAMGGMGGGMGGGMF
The test is described as follows: Fluorescence polarization binding of fluorescein-labeled peptides to Hsp60. Conditions: peptide 1 nM, blank about 62.
Description: as §1, §2, §3

Test [5] has as its target E. coli DnaK fragment aa583-615 (D-E helix hinge) (Escherichia coli, UniProt P0A6Y8). In words: Fluorescence polarization with synthetic DnaK fragment aa583-615. In kind it is binding. Conditions: Tris HCl at pH 8.0; labeled peptide 1 nM. As for the experimental part: The binding of the synthetic DnaK fragments to their fluorescein-labeled pyrrhocoricin counterparts was also assessed in solution, by fluorescence polarization [Lundblad, J. R. et al, (1996) Mol. Endocrinol. 10: 607-612]. For these experiments, the unlabeled peptides were serially diluted in PBS (pH 7.4) or 0.1 M Tris-HCl (pH 8.0) containing 0.1 M ethylene-diamine-tetraacetic acid (EDTA) in 50 μL final volume in 6×50 mm disposable glass borosilicate tubes. The fluoresceinated peptides were added to each tube in a 50 μL aliquot to a final concentration of 1 nM and tubes were incubated at 37° C. for 5 minutes. The extent of fluorescence anisotropy was measured on a Beacon 2000 fluorescence polarization instrument (PanVera, Madison, Wis.) and calculated as millipolarization values. The filters used were 485 nm excitation and 535 nm emission with 3 nm band width. Non-linear curve fitting was done by using a dose-response logistical transition [y=a0+a1/(1+x/a2)^a^3] and the Levenberg-Marquardt Algorithm within the SlideWrite software package. The provided Kd value (a2 coefficient) was calculated by the program.
To quantitatively characterize the pyrrhocoricin—D-E helix interaction, the complete binding curves were measured for E. coli DnaK fragments aa583-615 and aa588-615, both of SEQ ID NO: 10.

Test [6] addresses blocked E. coli DnaK fragment aa591-615 (Escherichia coli, UniProt P0A6Y8). The test is classed as binding. Conditions: PBS; qualitative.
Test [7] deals with E. coli DnaK fragment aa397-439 (conventional peptide binding pocket) (Escherichia coli, UniProt P0A6Y8). The test is described as follows: Fluorescence polarization with DnaK fragment aa397-439. Particulars: PBS; qualitative.
Sequence of E. coli DnaK fragment aa397-439 (conventional peptide binding pocket) (P0A6Y8 397-439): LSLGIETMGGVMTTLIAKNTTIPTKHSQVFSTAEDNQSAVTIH
In test [8] the target is E. coli DnaK aa513-551 (A-B helix fragment) (Escherichia coli, UniProt P0A6Y8). In words: Fluorescence polarization with DnaK A-B helix fragment. The test is classed as binding.
Sequence of E. coli DnaK aa513-551 (A-B helix fragment) (P0A6Y8 514-552 limits assumed): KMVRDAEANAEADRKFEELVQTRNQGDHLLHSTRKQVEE
Test [9] addresses E. coli DnaK aa596-637 (Escherichia coli, UniProt P0A6Y8). The test is described as follows: Fluorescence polarization with DnaK extreme C-terminus fragment. In kind it is binding. Conditions: PBS; qualitative.
Test [10] addresses T4, S. aureus DnaK 554-585 (D-E helix fragment) (Staphylococcus aureus, UniProt P45554).
T4 sequence (P45554 554-585 limits assumed): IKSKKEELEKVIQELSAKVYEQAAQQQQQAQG
The test is described as follows: Fluorescence polarization with S. aureus DnaK D-E helix fragment. In kind it is binding.

Test [11] concerns the target GroEL (Escherichia coli, UniProt P0A6F5). The test is described as follows: Fluorescence polarization binding of fluorescein-labeled peptides to GroEL. Set-up: purchased; host or cells: E. coli; species or system E. coli. Conditions: peptide 1 nM, blank about 62. The source says: (§4) All solid-phase assays that separate the bound form of the ligand from the free form are suspect.
(§5) In one example, three fluorescein-labeled peptides were synthesized with the fluorescein label attached at the N-terminus of the peptide: fluorescein-K-pyrrhocoricin (N-F-pyrrhocoricin), fluorescein-K-drosocin (unglycosylated; N-F-drosocin), and fluorescein-K-apidaecin (N-F-apidaecin). […] Biophys. Acta, 1426: 459-467; McManus, A. et al, (1999) Biochemistry, 38: 705-714].
(§6) During fluorescence polarization, positive signals are detected only when the free rotation of the fluorescein attached to one of the interacting partners is slowed down due to binding to the other partner when this label is not exceedingly far from the site of interaction. If the label is placed too far from the binding site, the flexibility of peptide-like structures will resume free rotation of the fluorescein moiety, resulting in no polarization anisotropy, even if positive binding occurs. As a negative control fluorescein-labeled peptide, a fragment of the […] of human tubulin was used [Otvos, L., Jr. et al, (1998) Protein and Peptide Lett., 5: 207-213].
The same heat shock proteins and LPS preparations were used as in the Western-blotting, except DnaJ was not studied. Ras was used as a negative control protein. […]

Test [12] addresses DnaK (Escherichia coli, UniProt P0A6Y8). The test is described as follows: Fluorescence polarization binding of fluorescein-labeled peptides to DnaK. More on the design: purchased; host or cells: E. coli; species or system E. coli. Particulars: for minipolarization value: peptide 1 nM, blank about 62.
Description: as §4, §5, §6
The same heat shock proteins and LPS preparations were used as in the Western-blotting, except DnaJ was not studied. Ras was used as a negative control protein. The fluorescein-K-pyrrhocoricin—DnaK binding study was repeated with an additional DnaK preparation, purchased from another source. The labeled peptides were used in fixed 1 nM concentrations. […] The initial concentration of LPS was set to 0.5 mg/ml, and dilutions were made until 0.031 mg/ml.

The target in test [13] is Hsp70 (Homo sapiens, UniProt P0DMV8). The test is described as follows: Fluorescence polarization binding of fluorescein-labeled peptides to Hsp70. More on the design: purchased; host or cells: E. coli. Conditions: Hsp70 at both concentrations (4 μM and 2 μM); peptide 1 nM; blank about 62.
Sequence of Hsp70 (P0DMV8 whole entry): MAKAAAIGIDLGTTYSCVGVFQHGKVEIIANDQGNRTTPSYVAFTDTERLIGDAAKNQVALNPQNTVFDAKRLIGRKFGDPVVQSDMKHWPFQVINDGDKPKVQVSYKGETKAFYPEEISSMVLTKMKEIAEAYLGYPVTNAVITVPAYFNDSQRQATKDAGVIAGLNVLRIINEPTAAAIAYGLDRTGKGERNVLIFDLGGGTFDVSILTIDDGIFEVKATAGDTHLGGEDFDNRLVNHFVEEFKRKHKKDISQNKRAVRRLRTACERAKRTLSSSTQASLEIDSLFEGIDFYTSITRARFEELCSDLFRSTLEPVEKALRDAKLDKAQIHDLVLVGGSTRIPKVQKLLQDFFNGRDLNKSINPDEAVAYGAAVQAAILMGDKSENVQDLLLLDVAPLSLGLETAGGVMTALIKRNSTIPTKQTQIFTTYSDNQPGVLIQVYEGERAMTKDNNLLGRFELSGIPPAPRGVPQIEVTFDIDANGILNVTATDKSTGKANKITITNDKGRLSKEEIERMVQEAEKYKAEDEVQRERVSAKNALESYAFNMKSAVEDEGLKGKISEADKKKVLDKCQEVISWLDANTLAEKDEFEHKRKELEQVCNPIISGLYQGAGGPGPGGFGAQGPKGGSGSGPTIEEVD
Description: as §1, §2, §3

Residues, ends and D or L forms follow the SMILES beside them. *: point of attachment. 5FAM = O=C1OC2(c3ccc(O)cc3Oc3cc(O)ccc32)c2ccc(C(=O)*)cc21

Sequence of DnaK (P0A6Y8 whole entry): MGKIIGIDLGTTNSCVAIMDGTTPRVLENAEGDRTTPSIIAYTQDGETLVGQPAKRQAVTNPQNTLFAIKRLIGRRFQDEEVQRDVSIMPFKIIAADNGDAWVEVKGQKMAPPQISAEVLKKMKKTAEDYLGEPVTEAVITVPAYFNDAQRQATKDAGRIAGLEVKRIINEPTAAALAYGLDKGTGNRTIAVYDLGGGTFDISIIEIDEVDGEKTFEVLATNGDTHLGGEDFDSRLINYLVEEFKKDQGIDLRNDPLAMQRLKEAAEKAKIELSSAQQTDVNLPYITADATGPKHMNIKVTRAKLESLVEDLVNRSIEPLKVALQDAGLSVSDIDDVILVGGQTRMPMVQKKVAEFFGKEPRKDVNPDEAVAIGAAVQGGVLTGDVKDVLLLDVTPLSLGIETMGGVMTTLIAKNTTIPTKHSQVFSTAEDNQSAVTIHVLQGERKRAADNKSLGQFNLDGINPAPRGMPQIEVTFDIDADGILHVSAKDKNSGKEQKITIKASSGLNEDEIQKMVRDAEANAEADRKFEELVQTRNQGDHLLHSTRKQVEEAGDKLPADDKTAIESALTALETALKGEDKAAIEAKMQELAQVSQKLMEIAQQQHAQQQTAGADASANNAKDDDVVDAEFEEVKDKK
Sequence of GroEL (P0A6F5 2-548 limits assumed): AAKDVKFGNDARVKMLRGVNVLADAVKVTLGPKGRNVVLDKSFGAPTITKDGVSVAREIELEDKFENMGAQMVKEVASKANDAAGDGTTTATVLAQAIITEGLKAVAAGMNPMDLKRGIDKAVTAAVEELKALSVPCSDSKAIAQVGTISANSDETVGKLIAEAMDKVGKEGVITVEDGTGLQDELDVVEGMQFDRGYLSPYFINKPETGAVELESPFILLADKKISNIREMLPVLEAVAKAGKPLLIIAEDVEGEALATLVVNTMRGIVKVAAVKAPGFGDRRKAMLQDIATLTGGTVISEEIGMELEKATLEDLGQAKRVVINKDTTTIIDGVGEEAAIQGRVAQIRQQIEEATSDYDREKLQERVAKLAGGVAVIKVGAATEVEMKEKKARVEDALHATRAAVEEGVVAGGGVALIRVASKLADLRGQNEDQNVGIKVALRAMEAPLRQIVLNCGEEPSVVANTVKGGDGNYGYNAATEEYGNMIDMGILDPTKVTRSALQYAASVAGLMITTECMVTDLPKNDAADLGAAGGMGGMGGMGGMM
Sequence of E. coli DnaK fragment aa583-615 (D-E helix hinge) (P0A6Y8 584-616): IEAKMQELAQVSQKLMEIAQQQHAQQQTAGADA
Sequence of E. coli DnaK aa596-637 (P0A6Y8 597-638): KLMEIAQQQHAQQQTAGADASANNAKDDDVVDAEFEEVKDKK
Sequence of blocked E. coli DnaK fragment aa591-615 (P0A6Y8 592-616 limits assumed): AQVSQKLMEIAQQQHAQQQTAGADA

For `CC[C@H](C)[C@H](NC(=O)[C@@H]1CCCN1C(=O)[C@H](CCCNC(=N)N)NC(=O)[C@@H]1CCCN1C(=O)[C@@H]1CCCN1C(=O)[C@@H](NC(=O)[C@@H]1CCCN1C(=O)[C@H](CCCNC(=N)N)NC(=O)[C@@H]1CCCN1C(=O)[C@H](CC(C)C)NC(=O)[C@H](Cc1ccc(O)cc1)NC(=O)[C@H](CO)NC(=O)CNC(=O)[C@H](CCCCN)NC(=O)[C@H](CC(=O)O)NC(=O)[C@@H](NC(=O)[C@H](CCCCN)NC(=O)c1ccc2c(c1)C(=O)OC21c2ccc(O)cc2Oc2cc(O)ccc21)C(C)C)[C@@H](C)O)C(=O)N[C@@H](Cc1ccc(O)cc1)C(=O)N[C@@H](CC(N)=O)C(=O)N[C@@H](CCCNC(=N)N)C(=O)N[C@@H](CC(N)=O)C(=O)O` [N—F-pyrrhocoricin] (5FAM-KVDKGSYLPRPTPPRPIYNRN-OH; C-terminus assumed), the minipolarization value entry was “under 62” in test [1]; “under 62” in [2]; “under 62” in test [3]; “about 62” in test [4] (2 μM Hsp60); “about 90” in test [4] (4 μM Hsp60); “about 85” in test [11] (2 μM Gro EL). Also, the minipolarization value entry is on record as “over 100” in test [11] (4 μM Gro EL), “about 95” in test [12] (2 μM DnaK), “about 100” in test [12] (4 μM DnaK) and “under 62” in test [13]. Also, in test [5], the “binding to E. coli D-E helix hinge region aa583-615” value is “concentration-dependent binding”. Moreover, the “binding to blocked E. coli DnaK fragment aa591-615” value in [6] was “bound strongly”. Moreover, the “binding to fragment aa397-439” value in [7] is reported as “weakly”. Also, the “binding to E. coli A-B helix fragment” value in test [8] (PBS, qualitative) is given as “No interaction above the level of the negative control”; in test [8] (Tris HCl at pH 8.0) it was “did not bind”. The “binding to E. coli extreme C-terminus fragment” value in test [9] is on record as “No interaction above the level of the negative control”. Also, the “binding to D-E helix fragment of S. aureus DnaK” value in test [10] (PBS, qualitative) is on record as “No interaction above the level of the negative control”. In addition, in test [10] (Tris HCl at pH 8.0), the “binding to S. aureus D-E helix fragment” value is “did not bind”. Further, the “millipolarization values higher over the background” value in [12] (1 nM peptide bound to DnaK) is 50%.
